According to patent publication US10689398B2, “OXA-Diazaspiro compounds having activity against pain” (ESTEVE PHARMACEUTICALS, S.A., priority 2015, dated 2020):

Target: human σ1 receptor (Homo sapiens (Human), UniProt Q99720)
Experiment: Human σ1 receptor radioligand assay
Format: binding
Settings: transfected HEK-293 membranes, [3H](+)-pentazocine radioligand
Experimental: Human σ1 Receptor Radioligand Assay
To investigate binding properties of test compounds to human σ1 receptor, transfected HEK-293 membranes and [^3H](+)-pentazocine (Perkin Elmer, NET-1056), as the radioligand, were used. The assay was carried out with 7 μg of membrane suspension, 5 nM of [^3H](+)-pentazocine in either absence or presence of either buffer or 10 μM Haloperidol for total and non-specific binding, respectively. Binding buffer contained Tris-HCl 50 mM at pH 8. Plates were incubated at 37° C. for 120 minutes. After the incubation period, the reaction mix was then transferred to MultiScreen HTS, FC plates (Millipore), filtered and plates were washed 3 times with ice-cold 10 mM Tris-HCL (pH7.4). Filters were dried and counted at approximately 40% efficiency in a MicroBeta scintillation counter (Perkin-Elmer) using EcoScint liquid scintillation cocktail

Chain of human σ1 receptor (Q99720 whole entry): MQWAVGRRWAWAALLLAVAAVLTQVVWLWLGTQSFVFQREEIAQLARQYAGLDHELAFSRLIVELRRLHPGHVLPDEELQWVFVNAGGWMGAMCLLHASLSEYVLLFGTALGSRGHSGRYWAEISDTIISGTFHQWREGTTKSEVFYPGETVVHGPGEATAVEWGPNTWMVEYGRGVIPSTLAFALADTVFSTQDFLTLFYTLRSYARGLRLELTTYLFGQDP

SMILES | Ki [nM]
c1ccc(CCN2CCCC3(CC2)CN(Cc2ccccc2)CC2(CC2)O3)cc1 (stereo not shown) [Example 83, 13-benzyl-8-phenethyl-4-oxa-8,13-diazadispiro[2.1.6.3]tetradecane] | < 100
CC(C)CCN1CCCC2(CC1)CN(Cc1ccccc1)CC1(CC1)O2 (stereo not shown) [Example 84, 13-benzyl-8-isopentyl-4-oxa-8,13-diazadispiro[2.1.6.3]tetradecane] | < 100
CC(C)CN1CCCC2(CC1)CN(Cc1ccccc1)CC1(CC1)O2 (stereo not shown) [Example 85, 13-benzyl-8-isobutyl-4-oxa-8,13-diazadispiro[2.1.6.3]tetradecane] | < 100
CCN1CC(C)(C)OC2(CCCN(Cc3ccccc3)CC2)C1 (stereo not shown) [Example 86, 9-benzyl-4-ethyl-2,2-dimethyl-1-oxa-4,9-diazaspiro[5.6]dodecane] | < 100
CCN1CC(C)(C)OC2(CCCN(CCc3ccccc3)CC2)C1 (stereo not shown) [Example 87, 4-ethyl-2,2-dimethyl-9-phenethyl-1-oxa-4,9-diazaspiro[5.6]dodecane] | < 100
CCN1CC(C)(C)OC2(CCCN(CCC(C)C)CC2)C1 (stereo not shown) [Example 88, 4-ethyl-9-isopentyl-2,2-dimethyl-1-oxa-4,9-diazaspiro[5.6]dodecane] | < 100
CCN1CC(C)(C)OC2(CCCN(CC(C)C)CC2)C1 (stereo not shown) [Example 89, 4-ethyl-9-isobutyl-2,2-dimethyl-1-oxa-4,9-diazaspiro[5.6]dodecane] | < 100
c1ccc(CCN2CC3(CN(Cc4ccccc4)CC4(CC4)O3)C2)cc1 [Example 90, 10-benzyl-7-phenethyl-4-oxa-7,10-diazadispiro[2.1.3.3]undecane] | < 100
O=C(c1ccccc1)N1CC2(CC2)OC2(CN(CCc3ccccc3)C2)C1 [Example 91, (7-Phenethyl-4-oxa-7,10-diazadispiro[2.1.3.3]undecan-10-yl)(phenyl)methanone] | ≥ 500
CCN1C[C@]2(CCCN(Cc3ccccc3)CC2)OC2(CC2)C1=O [Example 92, (R)-8-benzyl-13-ethyl-4-oxa-8,13-diazadispiro[2.1.6.3]tetradecan-14-one] | < 100
CCN1C[C@@]2(CCCN(Cc3ccccc3)CC2)OC2(CC2)C1=O [Example 93, (S)-8-benzyl-13-ethyl-4-oxa-8,13-diazadispiro[2.1.6.3]tetradecan-14-one] | < 100
CC1(C)CN(C(=O)c2ccccc2)C[C@]2(CCCN(CCc3ccccc3)CC2)O1 [Example 94, (R)-(2,2-dimethyl-9-phenethyl-1-oxa-4,9-diazaspiro[5.6]dodecan-4-yl)(phenyl)methanone] | < 500
CC1(C)CN(C(=O)c2ccccc2)C[C@@]2(CCCN(CCc3ccccc3)CC2)O1 [Example 95, (S)-(2,2-dimethyl-9-phenethyl-1-oxa-4,9-diazaspiro[5.6]dodecan-4-yl)(phenyl)methanone] | < 500
